Test results published in article PMC3649849 (Journal of the American Chemical Society, 2013).

What was measured:
[1] = biological target: wildtype TbbTIM (triosephosphate isomerase) (Trypanosoma brucei brucei, UniProt P04789); assay: Competitive inhibition of TIM-catalyzed isomerization of GAP by phosphoglycolate; format: biochemical; details: relative to 14 kcal/mol estimated for GAP
L232A mutant TbbTIM = L232A mutant TbbTIM (Trypanosoma brucei brucei, UniProt P04789, L232A); assay: as above; format: biochemical
[2] = I = 0.05 (KCl); cited from earlier work
I172A mutant TbbTIM = assay: Competitive inhibition of TIM-catalyzed isomerization of GAP by phosphoglycolate; format: biochemical, Trypanosoma brucei brucei; details: pH < 6

## O=C(O)COP(=O)(O)O [PGA, Phosphoglycolate]
[1]
  fraction of the total intrinsic transition state binding energy for TIM expressed: ~ 80%
L232A mutant TbbTIM; pH 8.3, relative to wildtype
  fold increase in the affinity of the enzyme for I^3− from the L232A mutation: 20 fold
L232A mutant TbbTIM; read-out: Ki for inhibition by PGA trianion I^3−, pH 8.3, 25 °C, I = 0.1 (NaCl)
  Ki: 12 µM
[2]
  pKa for ionization of HI^2− to form I^3−: 6.5
I172A mutant TbbTIM
  fold lower affinity of the mutant compared with the wildtype enzyme for I^3−: 100 fold
